The assay deals with human GPR40 (Homo sapiens, UniProt O14842). Put plainly: FDSS-based intracellular calcium assay (Human GRP40 in vitro assay). The note with it: cells expressing GPR40, intracellular Ca2+ response, FDSS reader; read-out: hGPR40 EC50. The class given is cell-based. Further details: 3xFLAG; expressed in transfected cells. The protocol: To conduct the fluorescent imaging plate reader (FLIPR)-based calcium flux assay to measure intracellular Ca^2+ response, cells expressing GPR40 are plated on 384 well plates (BD BIOCOAT® #356697) at a density of 20,000 cells/20 μL medium per well in phenol red and serum-free DMEM (GIBCO® #21063-029) and incubated overnight. Using BD kit #s 80500-310 or -301, the cells are incubated with 20 μL per well of Hank's buffered salt solution with 1.7 mM probenecid and Fluo-3 at 37° C. for 30 min. Compounds are dissolved in DMSO and diluted to desired concentrations with assay buffer and added to the cells as 3× solution (20 μL per well). Run fluorescence/luminescence reader FDSS (Hamamatsu) to read intracellular Ca^2+ response.
(Calcium flux is commonly read through the fluorescence of an indicator in the cells.)

Where a name gives a salt, the structure may show the parent alone.

Chain of human GPR40 (O14842 whole entry): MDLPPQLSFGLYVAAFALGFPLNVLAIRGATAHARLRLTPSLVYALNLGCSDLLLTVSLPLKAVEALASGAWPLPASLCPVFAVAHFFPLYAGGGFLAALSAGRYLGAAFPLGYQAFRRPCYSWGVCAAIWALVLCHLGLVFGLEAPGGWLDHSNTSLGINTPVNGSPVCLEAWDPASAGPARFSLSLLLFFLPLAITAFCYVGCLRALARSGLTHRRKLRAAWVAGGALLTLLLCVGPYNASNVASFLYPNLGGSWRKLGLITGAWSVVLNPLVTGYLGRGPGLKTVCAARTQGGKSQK

For `CCO[C@@H]1C[C@H](CC(=O)O)N(c2ccc(OC3CCN(c4cc(OC)ccc4F)CC3)cc2)C1` [Example 2, 2-((2R,4R)-4-Ethoxy-1-(4-((1-(2-fluoro-5-methoxyphenyl)piperidin-4-yl)oxy)phenyl)pyrrolidin-2-yl)acetic acid, HCl], the EC50 is 0.12 µM.

For the compound `CCOc1ccc(F)c(N2CCC(Oc3ccc(N4C[C@H](OC)[C@@H](C5CCC5)[C@@H]4CC(=O)O)cc3)CC2)c1` [Example 92, 2-((2S,3S,4R)-3-Cyclobutyl-1-(4-((1-(5-ethoxy-2-fluorophenyl)piperidin-4-yl)oxy)phenyl)-4-methoxypyrrolidin-2-yl)acetic acid, TFA], the half-maximal effective concentration (EC50) came out at 3.7 µM.

Consider `CCOc1ccc(F)c(N2CCC(Oc3ccc(N4C[C@H](Oc5cccc(OC(F)(F)F)c5)C[C@@H]4CC(=O)O)cc3)CC2)c1` [Example 77, 2-((2R,4R)-1-(4-(1-(5-Ethoxy-2-fluorophenyl)piperidin-4-yloxy)phenyl)-4-(3-(trifluoromethoxy)phenoxy)pyrrolidin-2-yl)acetic acid], for which the EC50 was found to be 0.14 µM.

On to `CCOc1ccc(F)c(N2CCC(Oc3ccc(N4C[C@H](c5cnn(C)c5)C[C@@H]4CC(=O)O)cc3)CC2)c1` [Example 126, 2-((2R,4S)-1-(4-((1-(5-Ethoxy-2-fluorophenyl)piperidin-4-yl)oxy)phenyl)-4-(1-methyl-1H-pyrazol-4-yl)pyrrolidin-2-yl)acetic acid, TFA], for which the concentration for a half-maximal effect (EC50) was determined as 0.81 µM.

Take `COc1cc(N2CCC(Oc3ccc(N4C[C@H](F)[C@@H](C)[C@@H]4CC(=O)O)cc3F)C(C)C2)c(Cl)cn1` (stereo partly drawn) [Example 156, 2-((2S,3S,4R)-1-(4-(((3,4-trans)-1-(5-Chloro-2-methoxypyridin-4-yl)-3-methylpiperidin-4-yl)oxy)-3-fluorophenyl)-4-fluoro-3-methylpyrrolidin-2-yl)acetic acid]: the EC50 was 0.063 µM.

As for `COc1ccc(F)c(N2CCC(Oc3ccc(N4CC(F)(F)C[C@@H]4CC(=O)O)cc3)C(C)C2)c1` (single isomer, unassigned) [Example 53, Isomer 1, HCl], the 50% effective concentration (EC50) was 0.41 µM.

Consider `COc1cc(N2CCC(Oc3ccc(N4CC(C)(C)C[C@@H]4CC(=O)O)cn3)C(C)C2)c(Cl)cn1` (stereo partly drawn) [Example 109, 2-((R)-1-(6-(((3,4-trans)-1-(5-Chloro-2-methoxypyridin-4-yl)-3-methylpiperidin-4-yl)oxy)pyridin-3-yl)-4,4-dimethylpyrrolidin-2-yl)acetic acid, TFA], for which the concentration for a half-maximal effect (EC50) worked out at 0.23 µM.

For `COc1cc(N2CCC(Oc3ccc(N4C[C@H](OC)[C@@H](C)[C@@H]4CC(=O)O)cn3)C(C)C2)c(C2CCCC2(C)C)cn1` (single isomer, unassigned) [Example 150, Isomer 1, HCl], the half-maximal effective concentration (EC50) stood at 0.32 µM.

On to `COc1cc(N2CCC(Oc3ccc(N4C[C@H](OC)C[C@@H]4CC(=O)O)cc3)C(C)C2)c(F)cn1` (single isomer, unassigned) [Example 83, Isomer 2], for which the half-maximal effective concentration (EC50) was determined as 0.37 µM.

Take `COc1cc(N2CCC(Oc3ccc(N4C[C@H](OC)[C@@H](C)[C@@H]4CC(=O)O)c(F)c3)CC2)c(Cl)cn1` [Example 112, 2-((2S,3S,4R)-1-(4-((1-(5-Chloro-2-methoxypyridin-4-yl)piperidin-4-yl)oxy)-2-fluorophenyl)-4-methoxy-3-methylpyrrolidin-2-yl)acetic acid]: the EC50 is 0.13 µM.

Consider `COc1ccc(Br)c(N2CCC(Oc3ccc(N4C[C@H](OC)C[C@@H]4CC(=O)O)cc3)CC2)c1` [Example 58, 2-((2R,4R)-1-(4-(1-(2-Bromo-5-methoxyphenyl)piperidin-4-yloxy)phenyl)-4-methoxypyrrolidin-2-yl)acetic acid, TFA], for which the EC50 came out at 0.14 µM.

On to `COc1cc(N2CCC(Oc3ccc(N4C[C@H](C)[C@@H](C)[C@@H]4CC(=O)O)cn3)C(C)C2)c(Cl)cn1` (stereo partly drawn) [Example 106, 2-((2S,3R,4R)-1-(6-(((3,4-trans)-1-(5-Chloro-2-methoxypyridin-4-yl)-3-methylpiperidin-4-yl)oxy)pyridin-3-yl)-3,4-dimethylpyrrolidin-2-yl)acetic acid], for which the half-maximal effective concentration (EC50) came out at 0.17 µM.

With `CCOc1ccc(F)c(N2CCC(Oc3ccc(N4C[C@H](Oc5ccc(C)cc5)C[C@@H]4CC(=O)O)cc3)CC2)c1` [Example 74, 2-((2R,4R)-1-(4-(1-(5-Ethoxy-2-fluorophenyl)piperidin-4-yloxy)phenyl)-4-(p-tolyloxy)pyrrolidin-2-yl)acetic acid], the EC50 worked out at 1.2 µM.

Regarding `CCOc1ccc(F)c(N2CCC(Oc3ccc(N4C[C@H](c5cccc(C(F)(F)F)c5)C[C@@H]4CC(=O)O)cc3)CC2)c1` [Example 122, 2-((2R,4S)-1-(4-((1-(5-Ethoxy-2-fluorophenyl)piperidin-4-yl)oxy)phenyl)-4-(3-(trifluoromethyl)phenyl)pyrrolidin-2-yl)acetic acid, TFA], the 50% effective concentration (EC50) stood at 0.24 µM.

For the compound `COc1ccc(F)c(N2CCC(Oc3ccc(N4C[C@H](Cc5ccccc5)C[C@H]4CC(=O)O)cc3)CC2)c1` [Example 8, 2-((2S,4R)-4-Benzyl-1-(4-((1-(2-fluoro-5-methoxyphenyl)piperidin-4-yl)oxy)phenyl)pyrrolidin-2-yl)acetic acid, HCl], the EC50 worked out at 0.42 µM.

On to `COc1cc(N2CCC(Oc3ccc(N4C[C@H](C(F)(F)F)C[C@@H]4CC(=O)O)cc3)C(F)C2)c(Cl)cn1` (single isomer, unassigned) [Example 28, Isomer 1, HCl], for which the EC50 was determined as 0.33 µM.

For `COc1ccc(F)c(N2C[C@@H](C)[C@@H](Oc3ccc(N4C[C@H](OC)C[C@@H]4CC(=O)O)cc3)[C@@H](C)C2)c1` [Example 56, 2-((2R,4R)-1-(4-(((3S,4S,5R)-1-(2-Fluoro-5-methoxyphenyl)-3,5-dimethylpiperidin-4-yl)oxy)phenyl)-4-methoxypyrrolidin-2-yl)acetic acid, HCl], the EC50 came out at 2.5 µM.

Consider `COc1cc(N2CCC(Oc3ncc(N4C[C@H](OC)[C@@H](C)[C@H]4CC(=O)O)cc3F)C(C)C2)c(Cl)cn1` (stereo partly drawn) [Example 168, 2-((2R,3S,4R)-1-(6-(((3,4-trans)-1-(5-Chloro-2-methoxypyridin-4-yl)-3-methylpiperidin-4-yl)oxy)-5-fluoropyridin-3-yl)-4-methoxy-3-methylpyrrolidin-2-yl)acetic acid], for which the EC50 worked out at 0.5 µM.

Regarding `CCOc1ccc(F)c(N2CCC(Oc3ccc(N4C[C@H](C(F)(F)F)C[C@@H]4CC(=O)O)cc3)C(CC)C2)c1` (single isomer, unassigned) [Example 33, Isomer 2, HCl], the EC50 was found to be 0.43 µM.

`CCOc1ccc(F)c(N2CCC(Oc3ccc(N4C[C@H](OC)[C@@H](C)[C@@H]4CC(=O)O)cc3F)CC2)c1` [Example 101, 2-((2S,3S,4R)-1-(4-((1-(5-Ethoxy-2-fluorophenyl)piperidin-4-yl)oxy)-3-fluorophenyl)-4-methoxy-3-methylpyrrolidin-2-yl)acetic acid]: the EC50 was 0.18 µM.

In the case of `COc1cc(N2CCC(Oc3ccc(N4C[C@H](OC)C[C@@H]4CC(=O)O)cc3)C(C)C2)c(Cl)cn1` (single isomer, unassigned) [Example 84, Isomer 1, TFA], the EC50 was 0.73 µM.

For the compound `COc1cc(N2CCC(Oc3ccc(N4C[C@H](OC)[C@@H](C)[C@@H]4CC(=O)O)cn3)CC2)c(Cl)cn1` [Example 97, 2-((2S,3S,4R)-1-(6-((1-(5-Chloro-2-methoxypyridin-4-yl)piperidin-4-yl)oxy)pyridin-3-yl)-4-methoxy-3-methylpyrrolidin-2-yl)acetic acid], the EC50 stood at 0.11 µM.

Regarding `COc1ccc(F)c(N2CCC(Oc3ccc(N4C[C@H](OC)C[C@@H]4CC(=O)O)cc3F)CC2)c1` [Example 15, 2-((2R,4R)-1-(3-Fluoro-4-((1-(2-fluoro-5-methoxyphenyl)piperidin-4-yl)oxy)phenyl)-4-methoxypyrrolidin-2-yl)acetic acid, HCl], the EC50 was determined as 0.29 µM.

For the compound `CCCCCO[C@H]1CN(c2ccc(OC3CCN(c4cc(OC)ncc4Cl)CC3C)cc2)[C@@H](CC(=O)O)[C@@H]1C` (stereo partly drawn) [Example 162, 2-((2S,3S,4R)-1-(4-(((3,4-trans)-1-(5-Chloro-2-methoxypyridin-4-yl)-3-methylpiperidin-4-yl)oxy)phenyl)-3-methyl-4-(pentyloxy)pyrrolidin-2-yl)acetic acid, TFA], the EC50 was found to be 0.063 µM.

In the case of `COc1ccc(F)c(N2CCC(Oc3ccc(N4C[C@H](Oc5ccccc5)C[C@@H]4CC(=O)O)cc3)CC2)c1` [Example 6, 2-((2R,4R)-1-(4-((1-(2-Fluoro-5-methoxyphenyl)piperidin-4-yl)oxy)phenyl)-4-phenoxypyrrolidin-2-yl)acetic acid, HCl], the half-maximal effective concentration (EC50) amounted to 0.19 µM.

With `CCOc1cccc(N2CCC(Oc3ccc(N4C[C@H](C(F)(F)F)C[C@@H]4CC(=O)O)cc3)CC2)c1` [Example 21, 2-((2R,4R)-1-(4-((1-(3-Ethoxyphenyl)piperidin-4-yl)oxy)phenyl)-4-(trifluoromethyl)pyrrolidin-2-yl)acetic acid, HCl], the concentration for a half-maximal effect (EC50) is 0.85 µM.

For the compound `CCOc1ccc(F)c(N2CCC(Oc3ccc(N4C[C@H](Oc5cccc(C(F)(F)F)c5)C[C@@H]4CC(=O)O)cc3)CC2)c1` [Example 71, 2-((2R,4R)-1-(4-(1-(5-Ethoxy-2-fluorophenyl)piperidin-4-yloxy)phenyl)-4-(3-(trifluoromethyl)phenoxy)pyrrolidin-2-yl)acetic acid], the EC50 was determined as 0.25 µM.

Take `COCC1CN(c2cc(OC)ncc2Cl)CCC1Oc1ccc(N2C[C@H](C(F)(F)F)C[C@@H]2CC(=O)O)cc1` (single isomer, unassigned) [Example 172, Isomer 1, TFA]: the EC50 was 1.8 µM.

As to `CCOc1ccc(F)c(N2CCC(Oc3ccc(N4C[C@H](OC)C[C@@H]4CC(=O)O)cc3)CC2)c1` [Example 107, 2-((2R,4R)-1-(4-((1-(5-Ethoxy-2-fluorophenyl)piperidin-4-yl)oxy)phenyl)-4-methoxypyrrolidin-2-yl)acetic acid, TFA], the EC50 was 0.16 µM.

The term EC50 denotes the concentration giving half of the maximal effect.

Values taken from patent US9714231B2, “Pyrrolidine GPR40 modulators” (BRISTOL-MYERS SQUIBB COMPANY, priority 2012, dated 2017).
